Data as given in ChEMBL document CHEMBL5729293, “Inhibitors of KEAP1-Nrf2 protein-protein interaction” (2022).
pKd: −log10 of the molar value.

Assay: Fluorescence Based Assay: The details of the KEAP1 KELCH ThermoFluor® Assay Construct are as follows: Kelch domain of human KEAP 1 (321-624 aa) was used in the assay. The protein was expressed in E. coli with 6His tag that was cleaved prior to receipt for use.ThermoFluor® experiments were carried out using instruments owned by Janssen Research and Discovery, L.L.C. through its acquisition of 3-Dimensional Pharmaceuticals, Inc. 1,8-ANS (Invitrogen) was used as a fluorescent dye. Protein (KEAP Kelch) and compound solutions were dispensed into black 384-well polypropylene PCR microplates (Abgene) and overlayed with silicone oil (1 μL, Fluka, type DC 200) to prevent evaporation.Reference wells contained KEAP Kelch without compounds, and the assay conditions were as follows: 1.1 μM (0.037mg/mL) KEAP Kelch, 80 μM 1,8-ANS, 25 mM PIPES, pH 7.0, 100 mM NaCl, 0.002% Tween-20.

## Cc1ccc([C@H](CC(=O)O)c2ccn3c(C(F)(F)F)nnc3c2C)cc1CN1CC2(CC2)Oc2ncc(C#N)cc2S1(=O)=O
  pKd: > 9.00

## Cc1ccc([C@H](CC(=O)O)c2ccc3c(nnn3C3CC3)c2C)cc1CN1C[C@H]2CCCN2c2ncccc2S1(=O)=O
  pKd: > 9.00

## Cc1ccc(C(CC(=O)O)c2ccn3c(C(F)(F)F)nnc3c2C)cc1CN1C[C@H]2CCCN2c2ncccc2S1(=O)=O (some centres not stated)
  pKd: > 9.00

## Cc1ccc(C(CC(=O)O)c2ccn3c(C(F)(F)F)nnc3c2)cc1CN1C[C@@H]2CCCN2c2ncccc2S1(=O)=O (some centres not stated)
  pKd: > 9.00

## Cc1ccc([C@@H](CC(=O)O)c2ccc3c(nnn3CC3CC3)c2C)cc1CN1C[C@H]2CCCCN2c2ncccc2S1(=O)=O
  pKd: > 9.00

## CC[C@@H]1CN(Cc2cc([C@@H](CC(=O)O)c3ccn4c(C(F)(F)F)nnc4c3C)ccc2C)S(=O)(=O)c2cccnc2O1
  pKd: > 9.00

## Cc1ccc([C@H](CC(=O)O)c2ccn3c(C(F)(F)F)nnc3c2C)cc1CN1CC2(CC2)Oc2ncc(Cl)cc2S1(=O)=O
  pKd: > 9.00

## CCn1nnc2c(C)c(C(CC(=O)O)c3ccc(C)c(CN4CC5(COC5)Oc5ncccc5S4(=O)=O)n3)ccc21 (configuration not stated)
  pKd: > 9.00

## Cc1ccc([C@@H](CC(=O)O)c2ccn3c(C(F)(F)F)nnc3c2C)cc1CN1CC2(COC2)Oc2ncccc2S1(=O)=O
  pKd: > 9.00

## Cc1ccc([C@H](CC(=O)O)c2ccc3c(nnn3CC3CC3)c2C)cc1CN1C[C@@H]2CCCCN2c2ncccc2S1(=O)=O
  pKd: > 9.00

## Cc1ccc(C(CC(=O)O)c2cc(OC(F)F)c3c(c2)nnn3C)cc1CN1C[C@H]2CCCN2c2ncccc2S1(=O)=O (some centres not stated)
  pKd: > 9.00

## Cc1ccc([C@@H](CC(=O)O)c2ccc3c(nnn3C3CC3)c2C)cc1CN1C[C@]2(C)CCCN2c2ncccc2S1(=O)=O
  pKd: > 9.00

## Cc1cnc2c(c1)S(=O)(=O)N(Cc1cc([C@H](CC(=O)O)c3ccn4c(C(F)(F)F)nnc4c3C)ccc1C)CC1(CCOCC1)O2
  pKd: > 9.00

## Cc1cnc2c(c1)S(=O)(=O)N(Cc1cc(C(c3ccc4c(nnn4C4CC4)c3C)C(C)(C)C(=O)O)cnc1C)CC1(CCOCC1)O2 (configuration not stated)
  pKd: > 9.00

## CC[C@@H]1CN(Cc2cc(C(CC(=O)O)c3ccn4c(C(F)(F)F)nnc4c3C)ccc2C)S(=O)(=O)c2cccnc2O1 (some centres not stated)
  pKd: > 9.00

## Cc1ccc(C(CC(=O)O)c2ccc3c(nnn3C3CC3)c2C)cc1CN1CC2(COC2)Oc2ccccc2S1(=O)=O (configuration not stated)
  pKd: > 9.00

## CC[C@@H]1CN(Cc2cc([C@H](CC(=O)O)c3ccn4c(C(F)(F)F)nnc4c3C)ccc2C)S(=O)(=O)c2cccnc2O1
  pKd: > 9.00

## Cc1ccc(C(CC(=O)O)c2ccc3c(nnn3C3CC3)c2C)cc1CN1C[C@H]2CCCN2c2ncccc2S1(=O)=O (some centres not stated)
  pKd: > 9.00

## CC[C@@H]1CN(Cc2cc(C(CC(=O)O)c3cc(OC(F)F)c4c(c3)nnn4C)ccc2C)S(=O)(=O)c2cccnc2O1 (some centres not stated)
  pKd: > 9.00

## Cc1ccc(C(CC(=O)O)c2ccc3c(nnn3C3CC3)c2C)cc1CN1C[C@]2(C)CCCN2c2ncccc2S1(=O)=O (some centres not stated)
  pKd: > 9.00

## CC[C@@H]1CN(Cc2cc([C@H](CC(=O)O)c3ccn4c(C(F)(F)F)nnc4c3)ccc2C)S(=O)(=O)c2cccnc2O1
  pKd: > 9.00

## Cc1ccc([C@H](CC(=O)O)c2ccn3c(C(F)(F)F)nnc3c2C)cc1CN1C[C@H]2COCCN2c2ncc(Cl)cc2S1(=O)=O
  pKd: > 9.00

## Cc1ccc([C@H](CC(=O)O)c2ccn3c(C(F)(F)F)nnc3c2C)cc1CN1C[C@H]2COCCN2c2ncc(C#N)cc2S1(=O)=O
  pKd: > 9.00

## Cc1ccc([C@H](CC(=O)O)c2ccn3c(C(F)(F)F)nnc3c2)cc1CN1C[C@@H]2CCCN2c2ncccc2S1(=O)=O
  pKd: > 9.00

## Cc1ccc(C(CC(=O)O)c2ccc3c(nnn3CC3CC3)c2C)cc1CN1C[C@H]2CCCCN2c2ncccc2S1(=O)=O (some centres not stated)
  pKd: > 9.00

## Cc1ccc([C@@H](CC(=O)O)c2cc(OC(F)F)c3c(c2)nnn3C)cc1CN1C[C@H]2CCCN2c2ncccc2S1(=O)=O
  pKd: > 9.00

## CCn1nnc2c(C)c(C(CC(=O)O)c3ccc(C)c(CN4CC5(CC5)Oc5ncccc5S4(=O)=O)n3)ccc21 (configuration not stated)
  pKd: > 9.00

## Cc1ccc([C@H](CC(=O)O)c2ccc3c(nnn3C3CC3)c2C)cc1CN1CC2(COC2)Oc2ccccc2S1(=O)=O
  pKd: > 9.00

## Cc1ccc([C@H](CC(=O)O)c2ccn3c(C4CC4)nnc3c2C)cc1CN1CC2(CC2)Oc2ncc(F)cc2S1(=O)=O
  pKd: > 9.00

## Cc1ccc([C@@H](CC(=O)O)c2ccn3c(C(F)(F)F)nnc3c2)cc1CN1C[C@@H]2CCCN2c2ncccc2S1(=O)=O
  pKd: > 9.00

## Cc1ccc([C@H](CC(=O)O)c2ccn3c(C(F)(F)F)nnc3c2C)cc1CN1CC2(COC2)Oc2ncccc2S1(=O)=O
  pKd: > 9.00

## CC[C@@H]1CN(Cc2cc(C(CC(=O)O)c3ccn4c(C(F)(F)F)nnc4c3)ccc2C)S(=O)(=O)c2cccnc2O1 (some centres not stated)
  pKd: > 9.00

## Cc1ccc([C@H](CC(=O)O)c2ccc3c(nnn3C3CC3)c2C)cc1CN1C[C@H]2CCCCN2c2ncccc2S1(=O)=O
  pKd: > 9.00

## Cc1ccc([C@@H](CC(=O)O)c2ccn3c(C(F)(F)F)nnc3c2C)cc1CN1C[C@]2(C)CCCN2c2ncccc2S1(=O)=O
  pKd: > 9.00

## Cc1ccc([C@H](CC(=O)O)c2ccn3c(C(F)(F)F)nnc3c2C)cc1CN1C[C@@H]2CCCCN2c2ncc(Cl)cc2S1(=O)=O
  pKd: > 9.00

## CCn1nnc2c(C)c(C(CC(=O)O)c3ccc(C)c(CN4CC5(COC5)Oc5ncccc5S4(=O)=O)c3)ccc21 (configuration not stated)
  pKd: > 9.00

## Cc1ccc(C(CC(=O)O)c2ccc3c(nnn3C3CC3)c2C)cc1CN1C[C@@H]2CCCCN2c2ccccc2S1(=O)=O (some centres not stated)
  pKd: > 9.00

## Cc1ccc(C(CC(=O)O)c2ccc3c(nnn3CC3CC3)c2C)cc1CN1C[C@@H]2CCCCN2c2ncccc2S1(=O)=O (some centres not stated)
  pKd: > 9.00

## Cc1ccc([C@H](CC(=O)O)c2ccn3c(C(F)(F)F)nnc3c2C)cc1CN1C[C@H]2CCCN2c2ncc(C#N)cc2S1(=O)=O
  pKd: > 9.00

## CC[C@@H]1CN(Cc2cc([C@H](CC(=O)O)c3cc(OC(F)F)c4c(c3)nnn4C)ccc2C)S(=O)(=O)c2cccnc2O1
  pKd: > 9.00

## CCn1nnc2c(C)c([C@@H](CC(=O)O)c3ccc(C)c(CN4CC5(CC5)Oc5ncccc5S4(=O)=O)n3)ccc21
  pKd: > 9.00

## Cc1ccc([C@@H](CC(=O)O)c2ccc3c(nnn3C3CC3)c2C)cc1CN1C[C@H]2CCCCN2c2ncccc2S1(=O)=O
  pKd: > 9.00

## Cc1ccc(C(CC(=O)O)c2ccn3c(C(F)(F)F)nnc3c2C)cc1CN1C[C@H]2CCCN2c2ccccc2S1(=O)=O (some centres not stated)
  pKd: > 9.00

## CCn1nnc2c(C)c([C@H](CC(=O)O)c3ccc(C)c(CN4CC5(CC5)Oc5ncccc5S4(=O)=O)n3)ccc21
  pKd: > 9.00

## CC[C@@H]1CN(Cc2cc([C@@H](CC(=O)O)c3cc(OC(F)F)c4c(c3)nnn4C)ccc2C)S(=O)(=O)c2cccnc2O1
  pKd: > 9.00

## Cc1ccc([C@@H](CC(=O)O)c2ccc3c(nnn3CC3CC3)c2C)cc1CN1C[C@@H]2CCCCN2c2ncccc2S1(=O)=O
  pKd: > 9.00

## Cc1ccc(C(CC(=O)O)c2ccn3c(C(F)(F)F)nnc3c2C)cc1CN1CC2(COC2)Oc2ncccc2S1(=O)=O (configuration not stated)
  pKd: > 9.00

## CCn1nnc2c(C)c([C@H](CC(=O)O)c3ccc(C)c(CN4CC5(COC5)Oc5ccccc5S4(=O)=O)n3)ccc21
  pKd: > 9.00

## Cc1ccc([C@H](CC(=O)O)c2ccc3c(nnn3CC3CC3)c2C)cc1CN1C[C@H]2CCCCN2c2ncccc2S1(=O)=O
  pKd: > 9.00

## Cc1cnc2c(c1)S(=O)(=O)N(Cc1cc([C@H](c3ccc4c(nnn4C4CC4)c3C)C(C)(C)C(=O)O)cnc1C)CC1(CCOCC1)O2
  pKd: > 9.00

## Cc1ccc([C@H](CC(=O)O)c2ccn3c(C(F)(F)F)nnc3c2C)cc1CN1C[C@H]2CCCCN2c2nc(C(N)=O)ccc2S1(=O)=O
  pKd: > 9.00

## CCn1nnc2c(C)c([C@H](CC(=O)O)c3ccc(C)c(CN4CC5(COC5)Oc5ncccc5S4(=O)=O)n3)ccc21
  pKd: > 9.00
